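Each compound was tested at five concentrations against cells in 96-well plates for 48 hours. GI50 is the concentration that inhibits growth by half.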 Activity calls are given as the source filed them. No stated cut-off is given here; in the data, active = GI50 up to about 1.1 µM and inactive = higher.
Experiments:
Experiment in all cases: NCI tumour cell line growth inhibition, 48 h
[1] = test system: 786-0
[2] = test system: A498
[3] = test system: A549
[4] = test system: ACHN
[5] = test system: CAKI-1
[6] = test system: CCRF-CEM
[7] = test system: COLO 205
[8] = test system: DLD-1
[9] = test system: DMS-114
[10] = test system: DMS-273
[11] = test system: EKVX
[12] = test system: HCC 2998
[13] = test system: HCT-116
[14] = test system: HCT-15
[15] = test system: HL-60
[16] = test system: HOP-62
[17] = test system: HOP-92
[18] = test system: HT-29
[19] = test system: IGROV-1
[20] = test system: K562
[21] = test system: KM-20L2
[22] = test system: KM12
[23] = test system: LOX IMVI
[24] = test system: LXFL 529
[25] = test system: M14
[26] = test system: M19-MEL
[27] = test system: MOLT-4
[28] = test system: Malme-3M
[29] = test system: NCI-H226
[30] = test system: NCI-H23
[31] = test system: NCI-H460
[32] = test system: NCI-H522
[33] = test system: OVCAR-3
[34] = test system: OVCAR-4
[35] = test system: OVCAR-5
[36] = test system: OVCAR-8
[37] = test system: RPMI-8226
[38] = test system: RXF 393
[39] = test system: RXF 631
[40] = test system: SF-268
[41] = test system: SF-295
[42] = test system: SF-539
[43] = test system: SK-MEL-28
[44] = test system: SK-MEL-5
[45] = test system: SK-OV-3
[46] = test system: SN12C
[47] = test system: SNB-19
[48] = test system: SNB-75
[49] = test system: SR
[50] = test system: SW-620
[51] = test system: TK-10
[52] = test system: U-251
[53] = test system: UACC-257
[54] = test system: UACC-62
[55] = test system: UO-31
[56] = test system: XF498
[57] = test system: SK-MEL-2
[58] = test system: SNB-78

For `CN(C)CC(C)(C)C(=O)/C=C/c1ccc(/C=C/C(=O)C(C)(C)CN(C)C)cc1`, the GI50 [1] was 1.6 µM (inactive), the GI50 [2] was 1.9 µM (inactive) and the GI50 [3] was 2.79 µM (inactive). The GI50 [4] was 1.47 µM (inactive), the GI50 [5] was 1.42 µM (inactive) and the GI50 [6] was 1.05 µM (active). For the same compound, the GI50 [7] was 1.03 µM (active), the GI50 [8] was 0.28 µM (active) and the GI50 [9] was 1.3 µM (inactive). The GI50 [10] was 0.706 µM (active), the GI50 [11] was 1.45 µM (inactive) and the GI50 [12] was 1.66 µM (inactive). The GI50 [13] was 1.26 µM (inactive), the GI50 [14] was 0.605 µM and the GI50 [15] was 1.61 µM (inactive). The GI50 [16] was 2.14 µM (inactive), the GI50 [17] was 0.682 µM (active) and the GI50 [18] was 0.51 µM (active). For the same compound, the GI50 [19] was 1.71 µM (inactive), the GI50 [20] was 0.202 µM (active) and the GI50 [21] was 1.04 µM (active). The GI50 [22] was 1.85 µM (inactive), the GI50 [23] was 0.456 µM (active) and the GI50 [24] was 1.17 µM (inactive). The GI50 [25] was 1.62 µM (inactive), the GI50 [26] was 1.66 µM (inactive) and the GI50 [27] was 0.519 µM (active). The GI50 [28] was 1.87 µM (inactive), the GI50 [29] was 2.23 µM (inactive) and the GI50 [30] was 1.91 µM (inactive). The GI50 [31] was 3.78 µM (inactive), the GI50 [32] was 0.136 µM (active) and the GI50 [33] was 1.29 µM (inactive). For the same compound, the GI50 [34] was 1.02 µM (active), the GI50 [35] was 1.82 µM (inactive) and the GI50 [36] was 2.39 µM (inactive). The GI50 [37] was 1.97 µM (inactive), the GI50 [38] was 1.17 µM (inactive) and the GI50 [39] was 2 µM (inactive). The GI50 [40] was 1.35 µM (inactive), the GI50 [41] was 2.05 µM (inactive) and the GI50 [42] was 2.13 µM (inactive). For the same compound, the GI50 [43] was 1.87 µM (inactive), the GI50 [44] was 2.32 µM (inactive) and the GI50 [45] was 2.81 µM (inactive). The GI50 [46] was 1.42 µM (inactive), the GI50 [47] was 1.96 µM (inactive) and the GI50 [48] was 1.58 µM (inactive). The GI50 [49] was 2.28 µM (inactive), the GI50 [50] was 0.706 µM (active) and the GI50 [51] was 1.64 µM (inactive). For the same compound, the GI50 [52] was 1.61 µM (inactive), the GI50 [53] was 2.09 µM (inactive) and the GI50 [54] was 1.74 µM (inactive). The GI50 [55] was 1.99 µM (inactive) and the GI50 [56] was 1.22 µM (inactive).
For `CCn1c(O)c(C(=O)Nc2cccs2)c(=O)n(CC)c1=S`, the GI50 [1] was 19.6 µM (inactive), the GI50 [2] was 19.5 µM (inactive) and the GI50 [3] was 18.5 µM (inactive). For the same compound, the GI50 [4] was 21.5 µM (inactive), the GI50 [5] was 22.6 µM (inactive) and the GI50 [6] was 26.7 µM (inactive). For the same compound, the GI50 [7] was 16.8 µM (inactive), the GI50 [8] was 33.3 µM (inactive) and the GI50 [9] was 15.4 µM (inactive). The GI50 [13] was 19.2 µM (inactive), the GI50 [14] was 14 µM and the GI50 [15] was 19.8 µM (inactive). The GI50 [16] was 21.6 µM (inactive), the GI50 [17] was 21 µM (inactive) and the GI50 [18] was 17.6 µM (inactive). For the same compound, the GI50 [19] was 20.5 µM (inactive), the GI50 [20] was 21.9 µM (inactive) and the GI50 [21] was 17.7 µM (inactive). For the same compound, the GI50 [22] was 16.8 µM (inactive), the GI50 [23] was 17 µM (inactive) and the GI50 [24] was 14.9 µM (inactive). For the same compound, the GI50 [25] was 19.8 µM (inactive), the GI50 [26] was 19.1 µM (inactive) and the GI50 [27] was 20 µM (inactive). The GI50 [28] was 19.9 µM (inactive), the GI50 [29] was 25.5 µM (inactive) and the GI50 [30] was 15.8 µM (inactive). The GI50 [31] was 15.5 µM (inactive), the GI50 [32] was 18 µM (inactive) and the GI50 [33] was 16.6 µM (inactive). The GI50 [34] was 15.3 µM (inactive), the GI50 [35] was 23.7 µM (inactive) and the GI50 [36] was 14.2 µM (inactive). For the same compound, the GI50 [37] was 20.4 µM (inactive), the GI50 [39] was 19 µM (inactive) and the GI50 [40] was 19.3 µM (inactive). For the same compound, the GI50 [41] was 11.7 µM (inactive), the GI50 [42] was 18.5 µM (inactive) and the GI50 [43] was 17.3 µM (inactive). For the same compound, the GI50 [57] was 17.3 µM (inactive), the GI50 [44] was 18 µM (inactive) and the GI50 [45] was 26.7 µM (inactive). For the same compound, the GI50 [46] was 20 µM (inactive), the GI50 [47] was 19.5 µM (inactive) and the GI50 [48] was 17.5 µM (inactive). For the same compound, the GI50 [58] was 17.8 µM (inactive), the GI50 [49] was 29.5 µM (inactive) and the GI50 [50] was 23.2 µM (inactive). For the same compound, the GI50 [51] was 29 µM (inactive), the GI50 [52] was 11.4 µM (inactive) and the GI50 [53] was 22.7 µM (inactive). The GI50 [54] was 16 µM (inactive).
In the case of `Nc1ccc(C(=O)N/C(=C\C=C\c2ccco2)c2nc3c(O)nc(S)nc3[nH]2)cc1`, the GI50 [1] is reported as > 100 µM (inactive), the GI50 [3] is reported as > 100 µM (inactive) and the GI50 [4] is reported as > 100 µM (inactive). For the same compound, the GI50 [5] was > 100 µM (inactive), the GI50 [6] was > 100 µM (inactive) and the GI50 [7] was > 100 µM (inactive). For the same compound, the GI50 [8] was > 100 µM (inactive), the GI50 [10] was > 100 µM (inactive) and the GI50 [11] was > 100 µM (inactive). The GI50 [12] was > 100 µM (inactive), the GI50 [14] was greater than 100 µM and the GI50 [17] was > 100 µM (inactive). The GI50 [18] was > 100 µM (inactive), the GI50 [19] was > 100 µM (inactive) and the GI50 [20] was > 100 µM (inactive). For the same compound, the GI50 [21] was 87.1 µM (inactive), the GI50 [22] was > 100 µM (inactive) and the GI50 [24] was > 100 µM (inactive). For the same compound, the GI50 [25] was > 100 µM (inactive), the GI50 [26] was > 100 µM (inactive) and the GI50 [27] was > 100 µM (inactive). For the same compound, the GI50 [28] was > 100 µM (inactive), the GI50 [30] was > 100 µM (inactive) and the GI50 [32] was > 100 µM (inactive). The GI50 [33] was > 100 µM (inactive), the GI50 [34] was > 100 µM (inactive) and the GI50 [35] was > 100 µM (inactive). The GI50 [36] was > 100 µM (inactive), the GI50 [38] was > 100 µM (inactive) and the GI50 [39] was > 100 µM (inactive). For the same compound, the GI50 [40] was > 100 µM (inactive), the GI50 [41] was > 100 µM (inactive) and the GI50 [42] was > 100 µM (inactive). The GI50 [43] was > 100 µM (inactive), the GI50 [57] was > 100 µM (inactive) and the GI50 [44] was > 100 µM (inactive). The GI50 [45] was > 100 µM (inactive), the GI50 [46] was > 100 µM (inactive) and the GI50 [47] was > 100 µM (inactive). For the same compound, the GI50 [58] was > 100 µM (inactive), the GI50 [49] was > 100 µM (inactive) and the GI50 [50] was > 100 µM (inactive). For the same compound, the GI50 [51] was > 100 µM (inactive), the GI50 [52] was > 100 µM (inactive) and the GI50 [54] was > 10 µM (inactive). The GI50 [55] was > 100 µM (inactive) and the GI50 [56] was > 100 µM (inactive).

From ChEMBL document CHEMBL1201862, “PubChem BioAssay data set” (2004)
